Entries after “also recorded” stand apart in the source; their conditions may differ. Bridge positions count the residues as written; N and C are the ends. Square brackets hold non-standard residues; d marks the D form. 2Nal = N[C@@H](Cc1ccc2ccccc2c1)C(=O)O; R8 = C=CCCCCCC[C@@](C)(N)C(=O)O; S5 = C=CCCC[C@](C)(N)C(=O)O; Pra = C#CC[C@H](N)C(=O)O

One assay concerns the target T1, APC/C (Homo sapiens, UniProt Q9NYG5).
T1 construct: made in house; host or cells: SF9 insect cells (baculovirus)
Briefly: In vitro APC/C ubiquitination assay driven by the E2 enzyme UBE2C, fluorophore-labelled securin substrate. It is filed as biochemical. As to conditions: 100 μM, UBE2C, reaction time 45 min. The protocol:
Proteins were separated by SDS-PAGE electrophoresis using precast Bolt 4-12% Bis-Tris Plus protein gels (Thermo Fisher Scientific) and Criterion XT Bis-Tris Midi Protein Gels (Bio-Rad). In different experiments, various conditions were used: in vitro APC/C ubiquitination assays—165 V, 40 min, SDS-MES running buffer (50 mM MES, 50 mM Tris base, 0.1% SDS, 1 mM EDTA, pH 7.3; Thermo Fisher Scientific); in vitro APC/C ubiquitination assays determining KM—165V, 1 h, SDS-MOPS running buffer (50 mM MOPS, 50 mM Tris base, 0.1% SDS, 1 mM EDTA, pH 7.7; Thermo Fisher Scientific); pull-down binding assay—165 V, 35 min, SDS-MES running buffer.
APC/C-dependent ubiquitination reactions were performed at 30° C. in 30 mM HEPES pH 7.4, 175 mM NaCl, 8 mM MgCl2, 0.05% Tween-20, 1 mM DTT and 5% glycerol and contained 20 nM recombinant APC/C (note, for testing the first generation of inhibitors, APC/C and Cdc20 immunoprecipitated from mitotic HeLa K cells was used), 340 nM Cdc20, 46 nM GST-UBA1, 340 nM UBE2C (alternatively 400 nM UBE2D1, 280 nM UBE2S), 21 μM His6-ubiquitin or if it is indicated 21 μM methylated-ubiquitin (BostonBiochem), 2.6 mM ATP, 10 mM phosphocreatine and 11 μM creatine kinase. As substrates, 35 nM fluorophore-labeled ubiquitin-cyclin B and 50 nM fluorophore-labeled securin were standardly used (fluorophore IRDye 800CW (LI-COR) was used for labelling). In case of KM and kcat determination, 50, 100, 250, 500, 750, 1000, 1250, 2500 and 5000 nM fluorophore-labelled securin was used. The reaction was done in the volume of 15 μl, it was quenched after the indicated time with LDS sample buffer (Thermo Fisher Scientific) supplemented with 100 mM DTT and subjected to SDS-PAGE. Detection of fluorescently labelled substrates was done by quantitative near-infrared scanning system Odyssey.

A further assay concerns hTERT RPE-1 cells. Briefly: Live cell imaging of hTERT RPE-1 cells. As to conditions: hTERT RPE-1, 100 μM, imaged 12-24 h. It is filed as cell-based. As for the experimental part:
(§1) Automated time-lapse microscopy was performed using ImageXpress Micro XLS wide-field screening microscope (Molecular Devices) equipped with a 10×, 0.5 NA., 20×, 0.7 NA, and 40×, 0.95 NA Plan Apo air objectives (Nikon), a laser-based autofocus and a full environmental control (5% CO2, 37° C.). Cells were grown in 96-well plastic bottom plates (clear, Greiner Bio-One) and for live cell imaging media was changed to DMEM without phenol red and riboflavin (Thermo Fisher Scientific), supplemented with 10% (v/v) FBS, 1% (v/v) Glutamax, 1% (v/v) penicillin-streptomycin, and 0.5 μg/ml amphotericin B.
hTERT RPE-1 cells were seeded into 96-well plates (5000 cells) one day prior the treatment with compounds of the invention. Cells were treated with 100 μM of compound G2-6 and the negative control molecule G2-N2 and cell division was monitored by live cell imaging using ImageXpress Micro XLS wide-field screening microscope, images were acquired every 3 min for time courses of 12-24 h. The length of mitosis was determined manually.

A further assay addresses T2, RBX1 (Homo sapiens, UniProt P62877).
T2 construct: endogenous in cells; host or cells: HeLa K cell extract
Briefly: Pull-down binding assay in HeLa K cell extract, RBX1. As to conditions: azide beads, Western blot. The protocol:
(§2) For the protein transfer, the 0.45 μm Immobilon-FL PVDF membrane (Merck Millipore) was used. The membrane was activated in ethanol and then transferred to the Blotting buffer (50 mM SDS-MOPS, 50 mM Tris base, 0.1% SDS, 1 mM EDTA, 20% EtOH). The proteins were transferred using a wet transfer for 1.5 h at 400 mA. Subsequently, the membrane was incubated with the blocking solution, 10% milk in PBS-T (0.02% Tween-20 in PBS), for 1 h at room temperature. To detect proteins of the interest, the membrane was incubated with primary antibodies overnight at 4° C. Followed by washing the membrane 3 times 10 min with PBS-T and incubation with IRDye fluorescently labelled secondary antibodies for 1 h. Prior detection, the membrane was twice washed with PBS-T for 10 min and once with PBS for 10 min. The detection was done using the quantitative near-infrared scanning system Odyssey (LI-COR Biosciences).
(§3) HeLa K cell pellet was re-suspended in the extraction buffer (30 mM HEPES pH 7.5, 175 mM NaCl, 2.5 mM MgCl2, 0.25% NP40, 10% glycerol, 1 mM DTT) supplemented with 10 μM MG132 (VWR), 1 mM PMSF (Sigma-Aldrich), complete protease inhibitor cocktail (Roche) and PhosSTOP phosphatase inhibitors (Roche) and incubated for 20 min on ice, followed by centrifugation of cell debris for 15 min at 4° C. 16 100 g. […]
In general terms: Immunoblotting shows a protein as a band on a membrane.

A further assay addresses T3, APC/C (APC11) (Homo sapiens, UniProt Q9NYG5).
T3 construct: endogenous in cells; host or cells: HeLa K cell extract
Briefly: Pull-down binding assay in HeLa K cell extract, APC/C. As to conditions: Pra peptide clicked to azide agarose or magnetic beads, Western blot. The protocol:
as §2
HeLa K cell pellet was re-suspended in the extraction buffer (30 mM HEPES pH 7.5, 175 mM NaCl, 2.5 mM MgCl2, 0.25% NP40, 10% glycerol, 1 mM DTT) supplemented with 10 μM MG132 (VWR), 1 mM PMSF (Sigma-Aldrich), complete protease inhibitor cocktail (Roche) and PhosSTOP phosphatase inhibitors (Roche) and incubated for 20 min on ice, followed by centrifugation of cell debris for 15 min at 4° C. 16 100 g. In mean time, inhibitor molecules containing Propargyl (Pra) chemical group were covalently attached to the azide agarose or azide magnetic resin (Jena Bioscience) by Cu(I)-catalysed azide-alkyne cycloaddition reaction. Specifically, the inhibitor molecules were mixed with azide agarose resin in ratio 0.125 μmol inhibitor/25 μl agarose resin and azide magnetic resin in ratio 0.018 μmol inhibitor/20 μl magnetic resin. The reaction was catalysed by 1 mM CuSO4, 0.1 mM TBTA (Sigma-Aldrich) and 1 mM Sodium ascorbate and was performed on the rotating wheel for 30 min at room temperature in the volume of 1 ml. Subsequently, the resin was washed 5 times with the extraction buffer. The inhibitor-agarose resin was added to 1 mg of HeLa K cell extract and the inhibitor-magnetic resin was added to 0.5 mg of HeLa K cell extract followed by incubation at 4° C. for 2 h. Followed by washing the resin 5 times with the extraction buffer. Pull-down proteins were eluted by boiling for 15 min with 1×LDS sample buffer supplemented with 100 mM DTT (agarose resin) or by incubation with 1×LDS sample buffer for 10 min at room temperature followed by taking supernatant that was supplemented with 100 mM DTT and boiling it for 10 min. Samples were subjected to SDS PAGE and Western blot analysis.
HeLa K cell pellet was re-suspended in the extraction buffer (30 mM HEPES pH 7.5, 175 mM NaCl, 2.5 mM MgCl2, 0.25% NP40, 10% glycerol, 1 mM DTT supplied with complete protease inhibitor cocktail (Roche), PhosSTOP phosphatase inhibitors (Roche), 1 mM PMSF, 10 μM MG132) and incubated for 20 min on ice, followed by centrifugation to clear the lysate for 15 min at 4° C. 16,100 g. In the meantime, inhibitor molecules containing the propargyl-Gly-OH (Pra) chemical group were covalently attached to the azide agarose resin (Jena Bioscience) by Cu(I)-catalysed azide-alkyne cycloaddition reaction. Specifically, the inhibitor molecules were mixed with azide agarose resin in ratio 0.125 μmol inhibitor/20 μl agarose resin. The reaction was catalysed by 0.1 mM CuSO4, 0.5 mM THPTA (Sigma-Aldrich) and 5 mM Sodium ascorbate and was performed on the rotating wheel for 30 min at room temperature in the volume of 1 ml. […]

The next assay addresses T4, Cullin 1 (Homo sapiens, UniProt Q13616).
T4 construct: endogenous in cells; host or cells: HeLa K cell extract
Briefly: Pull-down binding assay in HeLa K cell extract, Cullin 1. As to conditions: azide beads, Western blot. As for the experimental part:
as §2, §3

In a further assay the test system is A549 cells. Briefly: Live cell imaging of A549 cells. It counts as cell-based, human. As to conditions: A549, 50 μM, imaged 24 h. The protocol: (§4) Automated time-lapse microscopy was performed using ImageXpress Micro XLS wide-field screening microscope (Molecular Devices) equipped with a 10×, 0.5 NA., 20×, 0.7 NA, and 40×, 0.95 NA Plan Apo air objectives (Nikon), a laser-based autofocus and a full environmental control (5% CO2, 37° C.). Cells were grown in 96-well plastic bottom plates (clear, Greiner Bio-One) and for live cell imaging media was changed to imaging media. Imaging media for A549, HeLa K and SW480 was DMEM without phenol red and riboflavin (Thermo Fisher Scientific), supplemented with 10% (v/v) FBS, 1% (v/v) Glutamax, and 1% (v/v) penicillin-streptomycin; imaging media for HT-1080 and RKO was RPMI 1640 without phenol red (Thermo Fisher Scientific), supplemented with 10% (v/v) FBS, and 1% (v/v) penicillin-streptomycin.
(§5) A549 (5000-5500 cells), HeLa K (3000-4000 cells), HT-1080 (4000 cells), RKO (5000 cells), and SW480 (7000-8000 cells) cells were seeded into 96-well plates one day prior to treatment with compounds of the invention. Cells were treated with 50 μM of compound G3_mod1_mini PEG and cell division was monitored by live cell imaging using an ImageXpress Micro XLS wide-field screening microscope and images were acquired every 3 min for time courses of 24 h. The length of mitosis was determined manually.

The next assay deals with HeLa K cells. Briefly: Live cell imaging of HeLa K cells. As to conditions: 50 μM. It counts as cell-based, human. As for the experimental part: as §1
HeLa K cells were seeded into 96-well plates (4000-4500 cells) one day prior the treatment with compounds of the invention. Cells were treated with 50 μM of compound G3_mod1_mini PEG and cell division was monitored by live cell imaging using ImageXpress Micro XLS wide-field screening microscope, images were acquired every 3 min for time courses of 48 h. The length of mitosis was determined manually.
as §4, §5

Another assay deals with RKO cells. The experiment in a line: Live cell imaging of RKO cells. It counts as cell-based, human. As to conditions: 50 μM, imaged 24 h. The protocol:
as §4, §5

For another assay, the system named is HT-1080 cells. The experiment in a line: Live cell imaging of HT-1080 cells. It counts as cell-based, human. As to conditions: HT-1080, 50 μM, imaged 24 h. As for the experimental part:
as §4, §5

For a further assay, the system named is SW480 cells. Briefly: Live cell imaging of SW480 cells. As to conditions: SW480, 50 μM, imaged 24 h. It counts as cell-based, human. As for the experimental part: as §4, §5

T2 sequence (P62877 whole entry): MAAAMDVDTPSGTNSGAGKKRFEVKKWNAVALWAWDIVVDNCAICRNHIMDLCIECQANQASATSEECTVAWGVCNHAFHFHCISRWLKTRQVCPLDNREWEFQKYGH
T4 sequence (Q13616 whole entry): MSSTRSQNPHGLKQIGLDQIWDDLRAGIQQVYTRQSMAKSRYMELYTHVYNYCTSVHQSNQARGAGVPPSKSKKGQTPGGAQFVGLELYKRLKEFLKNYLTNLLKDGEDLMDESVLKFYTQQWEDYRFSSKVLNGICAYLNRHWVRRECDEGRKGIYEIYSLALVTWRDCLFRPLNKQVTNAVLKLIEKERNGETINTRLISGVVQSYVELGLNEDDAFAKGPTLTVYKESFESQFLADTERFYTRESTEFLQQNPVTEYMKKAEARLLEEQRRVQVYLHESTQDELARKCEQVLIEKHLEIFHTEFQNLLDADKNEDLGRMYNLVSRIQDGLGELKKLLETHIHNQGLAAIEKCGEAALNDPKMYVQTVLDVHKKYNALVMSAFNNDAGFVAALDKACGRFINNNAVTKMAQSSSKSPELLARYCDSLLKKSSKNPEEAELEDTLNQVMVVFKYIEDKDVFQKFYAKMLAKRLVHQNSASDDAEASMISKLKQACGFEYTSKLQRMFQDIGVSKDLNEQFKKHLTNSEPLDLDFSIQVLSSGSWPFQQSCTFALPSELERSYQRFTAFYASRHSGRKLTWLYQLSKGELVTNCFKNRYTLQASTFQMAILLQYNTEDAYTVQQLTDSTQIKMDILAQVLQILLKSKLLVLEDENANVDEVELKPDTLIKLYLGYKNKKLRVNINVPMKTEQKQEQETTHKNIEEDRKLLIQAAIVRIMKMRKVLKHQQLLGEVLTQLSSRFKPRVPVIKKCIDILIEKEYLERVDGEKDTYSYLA

Take “cyclo(1,14)-[L 2-NaI L W K W E W E K R K p P] (cyclo(L[2Nal]LWKWEWEKRK[dP]P); SMILES CC(C)C[C@@H]1NC(=O)[C@H](Cc2ccc3ccccc3c2)NC(=O)[C@H](CC(C)C)NC(=O)[C@@H]2CCCN2C(=O)[C@H]2CCCN2C(=O)[C@H](CCCCN)NC(=O)[C@H](CCCNC(=N)N)NC(=O)[C@H](CCCCN)NC(=O)[C@H](CCC(=O)O)NC(=O)[C@H](Cc2c[nH]c3ccccc23)NC(=O)[C@H](CCC(=O)O)NC(=O)[C@H](Cc2c[nH]c3ccccc23)NC(=O)[C@H](CCCCN)NC(=O)[C@H](Cc2c[nH]c3ccccc23)NC1=O) [G2-6]”: in the assay with APC/C, the “inhibition of APC/C activity in vitro (ubiquitinated securin)” value was “the most potent molecule from item (f); also recorded: inhibit APC/C in vitro the most effectively compared to other molecules of item (f)”. Further, in the assay with hTERT RPE-1 cells, the “cell fate (cell death)” value was “causes cell death; also recorded: mitotic or subsequent cell death” and the “effect on mitosis (length of mitosis)” value was “prolongs mitosis; also recorded: causes prolonged mitosis”.

Turning to “Ac-cyclo(4,11)-EWPraZIKEIQRXRRA-NH2 (Ac-EW[Pra][R8]IKEIQR[S5]RRA-NH2; staple 4-11; SMILES C#CC[C@H](NC(=O)[C@H](Cc1c[nH]c2ccccc12)NC(=O)[C@H](CCC(=O)O)NC(C)=O)C(=O)N[C@]1(C)CCCCCCC=CCCC[C@@](C)(C(=O)N[C@@H](CCCNC(=N)N)C(=O)N[C@@H](CCCNC(=N)N)C(=O)N[C@@H](C)C(N)=O)NC(=O)[C@H](CCCNC(=N)N)NC(=O)[C@H](CCC(N)=O)NC(=O)[C@H]([C@@H](C)CC)NC(=O)[C@H](CCC(=O)O)NC(=O)[C@H](CCCCN)NC(=O)[C@H]([C@@H](C)CC)NC1=O) [G3-6Pra]”, the “binding to RBX1 (pull-down)” value in the assay with RBX1 is recorded as “does not bind”. For the same substance, the “binding to the APC/C (pull-down)” value with APC/C (APC11) was “binds to the APC/C”. In addition, the “binding to Cullin 1 (pull-down)” value with Cullin 1 is reported as “does not bind”.

Regarding “Ac-GFWFG-NH(CH2)2OCH2CO-cyclo(4,11)-EWWZIKEIQRXRRA-NH2 ({Ac-Gly-Phe-Trp-Phe-Gly-miniPEG}-EWW[R8]IKEIQR[S5]RRA-NH2; staple 4-11) [G3-6_mod1_miniPEG]”, the “effect on mitosis (length of mitosis)” value in the assay with A549 cells was “prolongs mitosis”; with HeLa K cells (imaged 24 h) it was “prolongs mitosis”; with HeLa K cells (imaged 48 h) it was “prolongs mitosis by arresting cells in metaphase; also recorded: induces a metaphase delay”; in the assay with RKO cells, “prolongs mitosis”; with HT-1080 cells it was “prolongs mitosis”; in the assay on SW480 cells, “prolongs mitosis”. Further, the “cell fate (cell death)” value is “cause cell death after a metaphase arrest in a subpopulation” with HeLa K cells (imaged 24 h), “causes cell death after metaphase” in the assay with HeLa K cells (imaged 48 h), “cause cell death after a metaphase arrest in a subpopulation” in the assay with HT-1080 cells and “cause cell death after a metaphase arrest in a subpopulation” in the assay on SW480 cells.

The record behind these values is US20230391828A1, “REGULATORS OF CELL DIVISION” (TECHNISCHE UNIVERSITÄT DRESDEN, priority 2020, published 2023).
